Measurements taken from the NIST ThermoML archive (doi:10.1016/j.fluid.2011.06.011).
Several values for one entry are separate records, joined by “and”; a condition that tells them apart may be missing. Equal values may be shown once.

Assays:
[1] = Liquid; for speed of sound: Sing-around technique in a fixed-path interferometer; for mass density: Vibrating tube method
[2] = refractive index (Na D-line) (dimensionless); conditions: 101.33 kPa, Liquid, Standard Abbe refractometry
[3] = xn = mol fraction of the nth substance listed; conditions: Liquid, x2 = 0; for speed of sound: Sing-around technique in a fixed-path interferometer; for mass density: Vibrating tube method
[4] = refractive index (Na D-line) (dimensionless); xn = mol fraction of the nth substance listed; conditions: 101 kPa, Liquid, Standard Abbe refractometry, x2 = 0

C=CC(C)(O)CCC=C(C)C (stereo not given) [3,7-dimethyl-1,6-octadien-3-ol]
[1]
Conditions | mass density, 101.33 kPa [kg/m3] | mass density, 20000 kPa [kg/m3] | mass density, 25000 kPa [kg/m3] | mass density, 30000 kPa [kg/m3] | mass density, 35000 kPa [kg/m3] | mass density, 40000 kPa [kg/m3] | speed of sound, 101 kPa [m/s] | speed of sound, 101.33 kPa [m/s]
283.15 K | 869.39 | 880.8 | 883.7 | 886.1 | 888.9 | 891.4 | 1370.6 | 1370.3
298.15 K | 857 | 869.4 | 872.3 | 875.2 | 877.9 | 880.6 | 1315.1 | 1313.1
313.15 K | 844.29 | 857.6 | 860.9 | 863.9 | 866.8 | 869.7 | – | 1260.8
328.15 K | 831.31 | 846 | 849.3 | 852.6 | 855.7 | 858.8 | – | 1207.6

[2]
Conditions | refractive index
283.15 K | 1.46659 and 1.4666
298.15 K | 1.45946
313.15 K | 1.45215
328.15 K | 1.44473

CCO [ethanol]
[1]
Conditions | mass density, 101 kPa [kg/m3] | mass density, 101.33 kPa [kg/m3] | mass density, 20000 kPa [kg/m3] | mass density, 25000 kPa [kg/m3] | mass density, 30000 kPa [kg/m3] | mass density, 35000 kPa [kg/m3] | mass density, 40000 kPa [kg/m3] | speed of sound, 101.33 kPa [m/s]
283.15 K | 798.28 | 798.27 | 812.8 | 816.5 | 819.8 | 823 | 826.1 | 1196.2
298.15 K | 785.46 | 785.45 | 801.5 | 805.3 | 808.8 | 812.2 | 815.5 | 1146.2
313.15 K | – | 772.39 | 789.8 | 794 | 797.4 | 801 | 804.8 | 1096.7
328.15 K | – | 758.93 | 777.8 | 782.2 | 786.3 | 790 | 793.9 | 1047

[2]
Conditions | refractive index
283.15 K | 1.36546
298.15 K | 1.35984
313.15 K | 1.35409
328.15 K | 1.34827

CCO [ethanol] + C=CC(C)(O)CCC=C(C)C
[3]
Conditions | mass density, 101 kPa [kg/m3] | mass density, 20000 kPa [kg/m3] | mass density, 25000 kPa [kg/m3] | mass density, 30000 kPa [kg/m3] | mass density, 35000 kPa [kg/m3] | mass density, 40000 kPa [kg/m3] | speed of sound, 101 kPa [m/s]
283.15 K | 798.28 | 812.8 | 816.5 | 819.8 | 823 | 826.1 | 1196.2
298.15 K | 785.46 | 801.5 | 805.3 | 808.8 | 812.2 | 815.5 | 1146.2
313.15 K | 772.39 | 789.8 | 794 | 797.4 | 801 | 804.8 | 1096.7
328.15 K | 758.93 | 777.8 | 782.2 | 786.3 | 790 | 793.9 | 1047

[4]
Conditions | refractive index
283.15 K | 1.36546
298.15 K | 1.35984
313.15 K | 1.35409
328.15 K | 1.34827
